Source: US20200197430A1, “Combination Therapy” (NuCana plc, priority 2017, published 2020)

Assays:
[1] = PRO-001 (ProGem1) first-in-human phase I study, pharmacokinetics; type: in vivo; conditions: compared with gemcitabine
Text: PRO-001 (aka ProGem1) was a first-in-human (FIH), phase I, open label, two stage study to investigate the safety, tolerability, clinical efficacy, pharmacokinetics (PK) and pharmacodynamics (PD) of NUC-1031 given in two parallel dosing schedules in subjects with advanced solid malignancies (EudraCT Number: 2011-005232-26). Subjects had the following tumour types at study entry: colorectal cancer (7 subjects), unknown primary (3), ovarian cancer (13), breast cancer (4), pancreatic cancer (9), cholangiocarcinoma (7), uterine or endometrial cancer (3), cervix cancer (2), lung cancer (6), mesothelioma (3) and thymus cancer (1). The study confirmed NUC-1031′s anti-tumour activity in patients with advanced progressive cancers, who have exhausted all standard therapeutic options, many of whom were resistant or refractory to prior nucleoside analogue therapy, including gemcitabine.

[2] = test system: platinum sensitive recurrent ovarian cancer; conditions: cited from earlier work

| Structure (SMILES) | levels of the potentially toxic metabolite dFdU released [1] | response rate [2] [%] | median PFS ([2]; median follow-up of 17 months) [months] |
| --- | --- | --- | --- |
| C[C@H](NP(=O)(OC[C@H]1O[C@@H](n2ccc(N)nc2=O)C(F)(F)[C@@H]1O)Oc1ccccc1)C(=O)OCc1ccccc1 (stereo partly drawn) [NUC-1031, 2′-Deoxy-2′,2′-difluoro-D-cytidine-5′-O-[phenyl (benzoxy-L-alaninyl)] phosphate] | lower levels | – | – |
| N.N.O=C([O-])C1(C(=O)[O-])CCC1.[Pt+2] [carboplatin] | – | 30.9 | 5.8 |
